{"source": "patent WO2020032435A1", "about": "(priority 2018, dated 2019)", "key": {"[1]": {"system": "cAMP", "experiment": "cAMP concentration in human dermal papilla cells, ELISA", "type": "cell-based", "conditions": "Human dermal papilla cell, 24 hours, DMSO negative control, read-out: increase in cAMP concentration"}, "[2]": {"system": "human dermal papilla cells", "experiment": "Cell proliferation of human dermal papilla cells, MTT assay", "conditions": "24 h, read-out: proliferation rate increase"}, "[3]": {"system": "VEGF", "experiment": "VEGF mRNA expression in human dermal papilla cells, RT-PCR", "type": "cell-based", "conditions": "Human dermal papilla cell, 24 hours, read-out: increase in mRNA expression of VEGF"}, "[4]": {"system": "cycD", "experiment": "Cyclin D mRNA expression in human dermal papilla cells, RT-PCR", "type": "cell-based", "conditions": "Human dermal papilla cell, 24 hours, read-out: increase in mRNA expression of cycD"}, "[5]": {"system": "LEF", "experiment": "LEF mRNA expression in human dermal papilla cells, RT-PCR", "type": "cell-based", "conditions": "Human dermal papilla cell, 24 hours, read-out: increase in mRNA expression of LEF"}, "[6]": {"system": "VEGF", "experiment": "VEGF concentration in culture medium of human dermal papilla cells, ELISA", "type": "cell-based", "conditions": "Human dermal papilla cell, 24 hours, DMSO negative control, read-out: increase in VEGF concentration"}, "[7]": {"system": "IGF", "experiment": "IGF-1 mRNA expression in human dermal papilla cells, RT-PCR", "type": "cell-based", "conditions": "Human dermal papilla cell, 24 hours, read-out: increase in mRNA expression of IGF"}, "[8]": {"system": "IGF-1", "experiment": "IGF-1 concentration in culture medium of human dermal papilla cells, ELISA", "type": "cell-based", "conditions": "Human dermal papilla cell, 24 hours, DMSO negative control, read-out: increase in IGF-1 concentration"}}, "data": [{"smiles": "COc1ccc2ccccc2c1", "note": "[Yarayara, 2-methoxynaphthalene]", "values": [{"measurement": "activation at 20 µM", "setting": "[1]", "result": 47, "unit": "%"}, {"measurement": "activation at 10 µM", "setting": "[2]", "result": 10.6, "unit": "%"}, {"measurement": "activation at 20 µM", "setting": "[2]", "result": 37, "unit": "%"}, {"measurement": "activation at 50 µM", "setting": "[2]", "result": 28, "unit": "%"}, {"measurement": "activation at 20 µM", "setting": "[3]", "result": 274, "unit": "%"}, {"measurement": "activation at 20 µM", "setting": "[4]", "result": 262, "unit": "%"}, {"measurement": "activation at 20 µM", "setting": "[5]", "result": 340, "unit": "%"}, {"measurement": "activation at 20 µM", "setting": "[6]", "result": 30, "unit": "%"}, {"measurement": "activation at 20 µM", "setting": "[7]", "result": 270, "unit": "%"}, {"measurement": "activation at 20 µM", "setting": "[8]", "result": 22, "unit": "%"}]}]}
